Experimental data: ChEMBL document CHEMBL1156829 (Proc Natl Acad Sci U S A, 2008)

How the values were obtained:
Plasmodium falciparum [1] = assay: NOVARTIS: Inhibition of Plasmodium falciparum 3D7 (drug-susceptible) proliferation in erythrocyte-based infection assay; format: functional, organism-based; details: Plasmodium falciparum, 3D7
Plasmodium falciparum [2] = assay: NOVARTIS: Inhibition of Plasmodium falciparum W2 (drug-resistant) proliferation in erythrocyte-based infection assay; format: functional, organism-based; details: Plasmodium falciparum, W2; read-out: EC50
[3] = NOVARTIS: Cytotoxicity against human hepatocellular carcinoma cell line (Huh7); format: toxicity, cell-based, Huh-7; details: Huh7 cells (hepatocellular carcinoma cell line)

| Structure (SMILES) | EC50 (Plasmodium falciparum [1]) [nM] | EC50 (Plasmodium falciparum [2]) [nM] | CC50 [3] [nM] |
| --- | --- | --- | --- |
| CCCCCCN(C(=O)c1ccc(C(C)(C)C)cc1)C(CC)c1nc2cc(Cl)ccc2c(=O)n1CC (stereo not drawn) | 954 | 1010 | > 10000 |
| C=C[C@H]1CN2CC[C@H]1C[C@@H]2[C@@H](OC(=O)CCCCl)c1ccnc2ccccc12 | 49 | 96.8 | > 10000 |
| CCCNC(=O)N1CCC2(CC1)CC(=O)c1cc(C)ccc1O2 | 870 | 448 | > 100000 |
| c1ccc(CCNC2CCN(Cc3ccccc3)CC2)cc1 | 1470 | 500 | 43500 |
| COc1ccc(CNCc2cc3c(-c4ccc(C)cc4)nn(-c4ccccc4)c3[nH]c2=O)cc1 | 133 | 842 | > 100000 |
| CCC(=O)Nc1cc(NC(=O)CSc2nc(C)c(CC)c(O)n2)ccc1C | > 1250 | 1.61 | 3920 |
| COC(=O)C1=C(OC)C(=O)OC12C=CC(=O)C=C2 | 2220 | 423 | 2520 |
| COc1ccc(CNc2ncnc3c2[nH]c2cc(OC)ccc23)cc1 | 958 | 856 | 24100 |
| Cc1cc(C)n(N=Cc2cccc(Cl)c2)c(=O)c1C#N | > 12500 | 9060 | > 100000 |
| COc1ccc(-c2cc(C(=O)Nc3cc(Oc4ccc(NC(C)=O)cc4)cc([N+](=O)[O-])c3)c3ccccc3n2)cc1 | > 12500 | 2110 | > 100000 |
| COc1ccc(Nc2nc(NN=Cc3cc4c(cc3Br)OCO4)nc(Nc3ccc([N+](=O)[O-])cc3)n2)cc1 | 460 | 684 | > 100000 |
| Cc1ccnc(NC(c2ccc3ccccc3c2)c2ccc3cccnc3c2O)c1 (stereo not drawn) | 6750 | > 12500 | > 100000 |
| CCOC(=O)c1cnc2ccc(C)cc2c1NCCCN1CCOCC1 | 900 | 827 | > 100000 |
| CCN1CCN(c2cc(C)c3cc(NC(=O)c4ccc(F)c([N+](=O)[O-])c4)ccc3n2)CC1 | 1160 | 365 | 42900 |
| Cc1ccc(NC(=O)CSc2nc3cc(C(=O)NCCCOC(C)C)ccc3c(=O)n2Cc2ccco2)cc1Cl | 1940 | 340 | > 10000 |
| C[n+]1cccc(C=C2c3ccccc3-c3ncccc32)c1 | 173 | 678 | > 100000 |
| O=C(Nc1ccc2c(c1)OCO2)c1cc2cc(C3(O)CCN(CC4CCCCC4)CC3)ccc2o1 | 442 | 311 | > 100000 |
| COc1cncc(-c2cncc(N3CCN(c4ccncc4)CC3)n2)c1 | 80.4 | 94.7 | > 10000 |
| CCOC(=O)C(=O)N1c2ccc(C)cc2-c2c(ssc2=S)C1(C)C | 46.5 | 37.7 | > 100000 |
| CC1=C(C(=O)OC2CCCCC2)C(c2ccc(F)c(F)c2)C2=C(CCCC2=O)N1 (stereo not drawn) | 6230 | 2730 | > 100000 |
| CCCCNC(=O)NC(Cc1c[nH]c2ccccc12)C(=O)NC1CCCCC1 (stereo not drawn) | > 1250 | > 28.3 | > 2020 |
| Cc1ccc2nc(C(C#N)=Cc3cn(Cc4ccc(Cl)cc4Cl)nc3-c3ccccc3)[nH]c2c1 | 1820 | 1590 | > 100000 |
| COC(=O)c1c(-c2c(F)cccc2Cl)noc1C=CNc1ccccc1 | 11400 | 6980 | 73700 |
| Cc1ccc(C(=O)C(C)[n+]2ccc(N(C)C)cc2)cc1 (stereo not drawn) | 438 | 4040 | 35300 |
| Cc1ccc(-[n+]2c(-c3ccccc3)cn3c2CCCCC3)cc1 | 605 | 515 | 67800 |
| O=C(CCCOc1ccc(Cl)cc1Cl)NCCCn1ccnc1 | 480 | > 1250 | > 10000 |

| Structure (SMILES) | EC50 (Plasmodium falciparum [1]) [nM] | EC50 (Plasmodium falciparum [2]) [nM] | CC50 [3] [nM] |
| --- | --- | --- | --- |
| CCOCCCN(C(=O)C(F)(F)F)C(C(=O)NC1CCCCC1)c1ccncc1 (stereo not drawn) | 1870 | > 1620 | > 10000 |
| COC(=O)C1CCCCN1S(=O)(=O)c1ccc(C)cc1 (stereo not drawn) | > 1250 | > 1120 | > 10000 |
| C=CC1CN2CCC1CC2C(OC(C)=O)c1ccnc2ccc(OC)cc12 (stereo not drawn) | 240 | 213 | > 100000 |
| CC(C)CC(=O)Nc1nnc(-c2ccc(Br)cc2)s1 | > 9040 | 2330 | > 100000 |
| COc1cc(NC(C)CCCN(Cc2ccc(F)cc2)C(=O)c2ccccc2F)c2ncccc2c1 (stereo not drawn) | 692 | 649 | > 8740 |
| O=[N+]([O-])c1cc(C(F)(F)F)c(Cl)c([N+](=O)[O-])c1Nc1cc(C(F)(F)F)ccc1Cl | 565 | 301 | 6130 |
| COc1cc2nc(NCCCOC(C)C)n3nc(-c4ccccc4)nc3c2cc1OC | 793 | 1210 | > 100000 |
| CCCCCOC(=O)C1=C(C)NC2=C(C(=O)CC(C)(C)C2)C1c1ccncc1 (stereo not drawn) | 5190 | 1860 | > 100000 |
| COc1ccc(C(=O)C[N+]2=C(C)c3ccc(C)n3CC2)cc1 | 1170 | 1290 | > 100000 |
| COc1cccc(CCN2Cc3ccc(C(=O)NC(C)C)cc3N=C2c2cccnc2)c1 | 17.1 | > 42.3 | > 10000 |
| Cc1ccccc1Cn1c(=N)n(CC(O)c2ccc(Cl)c(Cl)c2)c2ccccc21 (stereo not drawn) | 135 | 38.4 | 13300 |
| CCCCOc1ccc(C(=O)Nc2c3c(nn2-c2ccc(C)cc2C)CSC3)cc1 | > 1520 | 1020 | > 10000 |
| O=C(CN1CCC(NC(=O)c2cccc(F)c2)CC1)NC1CC1 | > 1250 | 26.7 | > 10000 |
| O=C(c1ccccc1F)N1CCN(Cc2ccccc2C(F)(F)F)CC1 | 511 | 2470 | > 100000 |
| COc1ccc(C(=O)C[n+]2ccc3c(c2)nc(-c2ccc(OC)cc2OC)n3C)cc1 | 920 | 512 | > 100000 |
| COc1cccc(-c2ccc(O)c(CN3CCC(C)CC3)c2)n1 | 337 | 129 | 75000 |
| COc1ccccc1-n1c(S)nnc1-c1ccccc1O | 276 | 295 | > 10000 |
| CCC1CN2CCC1CC2[C@@H](O)c1ccnc2ccc(OC)cc12 (stereo partly drawn) [DIHYDROQUINIDINE] | 27.3 | 25.7 | > 96000 |
| CC(C)Cc1ccc(-c2csc(NC(=O)C3C4CCC(C4)C3C(=O)O)n2)cc1 (stereo not drawn) | 772 | 1850 | > 100000 |
| Cc1ccc(COc2ccc3c(C#N)c4ccccn4c3c2)cc1 | 2090 | 1370 | > 100000 |
| COc1ccc(CCNc2nc(NCCC3CCCN3C)ncc2C(=O)NCc2ccccc2)cc1OC (stereo not drawn) | 1060 | > 802 | > 10000 |
| CCN(CC)c1ccc(N=Cc2ccccc2[N+](=O)[O-])cc1 | 571 | 410 | 27700 |
| O=[N+]([O-])c1cccc(C(O)CNCc2ccc3c(c2)OCO3)c1 (stereo not drawn) | 1010 | 111 | > 100000 |
| C=CCSc1nn2c(=O)c(C)nnc2s1 | > 1620 | 1080 | > 10000 |
| O=C(Nc1ccc(-c2noc(CCc3ccccc3)n2)cc1)c1cccs1 | 903 | 554 | 15700 |
